Experimental data published in patent publication US20240228438A1, “SOLID FORMS OF SALTS OF 4-[5-[(3S)-3-AMINOPYRROLIDINE-1-CARBONYL]-2-[2-FLUORO-4-(2- HYDROXY-2-ETHYLPROPYL)PHENYL]PHENYL]-2-FLUORO-BENZONITRILE” (Astex Pharmaceuticals, Inc., priority 2021, published 2024).
Where a name gives a salt, the structure may show the parent alone. Each block holds one compound with its values, some of them ahead of it.

Columns and labels:
[1] = Stability testing: water absorption of salt forms at 40° C. and 75% RH for five days (KF); format: physicochemical; conditions: for Initial KF: water content before exposure; for KF water content after 5 days at 40° C./75% RH: open vial covered with Kim wipe
Method: The stability of different salt forms was tested. The salts were placed in 20-mL scintillation vials and covered with Kim wipe, and the resulting vials were exposed to 40° C. and 75% RH (relative humidity) for five days. The samples were analyzed for water absorption.

[2] = Aqueous solubility of the salt form (overall assessment); format: physicochemical; conditions: in words

moisture take-up under the tested conditions ([1]; 40° C./75% RH, five days, result in words): did not take-up moisture | KF water content after 5 days at 40° C./75% RH ([1]; five days): 0.63% | Initial KF [1]: 0.61%
Structure (SMILES): CC(C)(O)Cc1ccc(-c2ccc(C(=O)N3CC[C@H](N)C3)cc2-c2ccc(C#N)c(F)c2)c(F)c1 [mono-fumarate Form VI]

KF water content after 5 days at 40° C./75% RH ([1]; five days, mono-oxalate): 4.46% | hygroscopicity ([1]; overall assessment, in words): slightly hygroscopic | Initial KF ([1]; mono-oxalate): 1.06% | aqueous solubility [2]: good aqueous solubility
Structure (SMILES): CC(C)(O)Cc1ccc(-c2ccc(C(=O)N3CC[C@H](N)C3)cc2-c2ccc(C#N)c(F)c2)c(F)c1 [mono-oxalate (from EtOH) Form II, 4-[5-[(3S)-3-aminopyrrolidine-1-carbonyl]-2-[2-fluoro-4-(2-hydroxy-2-methylpropyl)phenyl]phenyl]-2-fluoro-benzonitrile mono-oxalate]

KF water content after 5 days at 40° C./75% RH ([1]; five days): 4.99% | Initial KF [1]: 2.66%
Structure (SMILES): CC(C)(O)Cc1ccc(-c2ccc(C(=O)N3CC[C@H](N)C3)cc2-c2ccc(C#N)c(F)c2)c(F)c1 [mono-oxalate salt (from IPA)]

More lines, now with the values behind:

Structure (SMILES): CC(C)(O)Cc1ccc(-c2ccc(C(=O)N3CC[C@H](N)C3)cc2-c2ccc(C#N)c(F)c2)c(F)c1 [esylate Form IVA, 4-[5-[(3S)-3-aminopyrrolidine-1-carbonyl]-2-[2-fluoro-4-(2-hydroxy-2-methylpropyl)phenyl]phenyl]-2-fluoro-benzonitrile esylate]
Initial KF [1]: 0.76%

Structure (SMILES): CC(C)(O)Cc1ccc(-c2ccc(C(=O)N3CC[C@H](N)C3)cc2-c2ccc(C#N)c(F)c2)c(F)c1 [hemi-fumarate Form I, 4-[5-[(3S)-3-aminopyrrolidine-1-carbonyl]-2-[2-fluoro-4-(2-hydroxy-2-methylpropyl)phenyl]phenyl]-2-fluoro-benzonitrile hemi fumarate]
KF water content after 5 days at 40° C./75% RH ([1]; five days): 1.57% | hygroscopicity ([1]; overall assessment, in words): slightly hygroscopic | residual water ([1]; overall assessment, in words): low residual water | Initial KF [1]: 0.69%

Structure (SMILES): CC(C)(O)Cc1ccc(-c2ccc(C(=O)N3CC[C@H](N)C3)cc2-c2ccc(C#N)c(F)c2)c(F)c1 [maleate Form V, 4-[5-[(3S)-3-aminopyrrolidine-1-carbonyl]-2-[2-fluoro-4-(2-hydroxy-2-methylpropyl)phenyl]phenyl]-2-fluoro-benzonitrile maleate]
Initial KF ([1]; maleate): 1.08%

Structure (SMILES): CC(C)(O)Cc1ccc(-c2ccc(C(=O)N3CC[C@H](N)C3)cc2-c2ccc(C#N)c(F)c2)c(F)c1 [mesylate Form IIIA, 4-[5-[(3S)-3-aminopyrrolidine-1-carbonyl]-2-[2-fluoro-4-(2-hydroxy-2-methylpropyl)phenyl]phenyl]-2-fluoro-benzonitrile mesylate]
Initial KF ([1]; mesylate): 2.55%
